In the NIST ThermoML archive (doi:10.1021/je101232g):

Conditions: Liquid

CCCCCCCCCCCCCC[P+](CCCCCC)(CCCCCC)CCCCCC.[Br-] [tetradecyltrihexylphosphonium bromide]
mass density [kg/m3]
Conditions | 283.15 K | 293.15 K | 303.15 K | 313.15 K | 323.15 K | 333.15 K
100 kPa | 962.7 | 956.5 | 950.3 | 944.1 | 937.8 | 931.7
1000 kPa | 963.2 | 957.1 | 950.9 | 944.6 | 938.4 | 932.3
2000 kPa | 963.7 | 957.6 | 951.4 | 945.3 | 939 | 933
3000 kPa | 964.2 | 958.1 | 952 | 945.8 | 939.7 | 933.6
4000 kPa | 964.8 | 958.7 | 952.6 | 946.4 | 940.3 | 934.2
5000 kPa | 965.3 | 959.2 | 953.1 | 947 | 941 | 934.9
10000 kPa | 967.9 | 961.9 | 955.9 | 949.8 | 943.9 | 938
15000 kPa | 970.3 | 964.5 | 958.6 | 952.7 | 946.8 | 941
20000 kPa | 972.8 | 967 | 961.2 | 955.4 | 949.7 | 943.9
25000 kPa | 975.3 | 969.3 | 963.8 | 958 | 952.4 | 946.8
30000 kPa | 977.6 | 971.8 | 966.3 | 960.6 | 955.1 | 949.6
35000 kPa | 979.8 | 974.2 | 968.7 | 963.2 | 957.7 | 952.3
40000 kPa | 982 | 976.5 | 971 | 965.5 | 960.2 | 954.9
45000 kPa | 984.2 | 978.8 | 973.4 | 967.9 | 962.7 | 957.3

CCCCCCCCCCCCCC[P+](CCCCCC)(CCCCCC)CCCCCC.O=S(=O)([N-]S(=O)(=O)C(F)(F)F)C(F)(F)F
mass density [kg/m3]
Conditions | 283.15 K | 293.15 K | 303.15 K | 313.15 K | 323.15 K | 333.15 K
100 kPa | 1077.4 | 1070 | 1062.7 | 1055.4 | 1048 | 1040.8
1000 kPa | 1077.9 | 1070.5 | 1063.3 | 1056 | 1048.7 | 1041.5
2000 kPa | 1078.4 | 1071.2 | 1063.9 | 1056.7 | 1049.3 | 1042.2
3000 kPa | 1079 | 1071.8 | 1064.5 | 1057.3 | 1050.1 | 1042.9
4000 kPa | 1079.6 | 1072.3 | 1065.2 | 1057.9 | 1050.7 | 1043.6
5000 kPa | 1080.2 | 1072.9 | 1065.8 | 1058.6 | 1051.4 | 1044.4
10000 kPa | 1083 | 1075.9 | 1068.8 | 1061.7 | 1054.7 | 1047.8
15000 kPa | 1085.6 | 1078.6 | 1071.8 | 1064.9 | 1057.9 | 1051.2
20000 kPa | 1088.3 | 1081.4 | 1074.7 | 1067.8 | 1061 | 1054.3
25000 kPa | 1090.8 | 1084 | 1077.4 | 1070.7 | 1064 | 1057.4
30000 kPa | 1093.3 | 1086.6 | 1080.1 | 1073.5 | 1066.9 | 1060.4
35000 kPa | 1095.6 | 1089.1 | 1082.7 | 1076.2 | 1069.8 | 1063.3
40000 kPa | 1097.9 | 1091.5 | 1085.1 | 1078.8 | 1072.4 | 1066.2
45000 kPa | 1100.2 | 1093.9 | 1087.7 | 1081.3 | 1075.1 | 1068.9

CCCCCCCCCCCCCC[P+](CCCCCC)(CCCCCC)CCCCCC.[Cl-] [trihexyl(tetradecyl)phosphonium chloride]
mass density [kg/m3]
Conditions | 283.15 K | 293.15 K | 303.15 K | 313.15 K | 323.15 K | 333.15 K
100 kPa | 898.4 | 892.4 | 886.5 | 880.6 | 874.8 | 868.9
1000 kPa | 898.8 | 892.9 | 887 | 881.1 | 875.3 | 869.4
2000 kPa | 899.3 | 893.4 | 887.5 | 881.7 | 875.8 | 870
3000 kPa | 899.8 | 893.9 | 888 | 882.2 | 876.4 | 870.6
4000 kPa | 900.3 | 894.4 | 888.5 | 882.7 | 876.9 | 871.1
5000 kPa | 900.7 | 894.9 | 889.1 | 883.3 | 877.6 | 871.8
10000 kPa | 903.1 | 897.3 | 891.5 | 885.9 | 880.2 | 874.5
15000 kPa | 905.3 | 899.6 | 894 | 888.4 | 882.8 | 877.3
20000 kPa | 907.5 | 901.8 | 896.3 | 890.8 | 885.3 | 879.9
25000 kPa | 909.6 | 904 | 898.6 | 893.2 | 887.8 | 882.5
30000 kPa | 911.7 | 906.3 | 900.8 | 895.5 | 890.1 | 884.9
35000 kPa | 913.7 | 908.3 | 903 | 897.7 | 892.6 | 887.3
40000 kPa | 915.7 | 910.3 | 905.1 | 899.9 | 894.8 | 889.6
45000 kPa | 917.6 | 912.4 | 907.2 | 902.1 | 897 | 892

CCCCCCCCCCCCCC[P+](CCCCCC)(CCCCCC)CCCCCC.N#C[N-]C#N [tetradecyl(trihexyl)phosphonium dicyanamide]
mass density [kg/m3]
Conditions | 283.15 K | 293.15 K | 303.15 K | 313.15 K | 323.15 K | 333.15 K
100 kPa | 907.5 | 901.7 | 895.9 | 890.2 | 884.3 | 878.6
1000 kPa | 908 | 902.1 | 896.4 | 890.6 | 884.8 | 879.2
2000 kPa | 908.4 | 902.6 | 896.9 | 891.2 | 885.4 | 879.7
3000 kPa | 908.9 | 903.1 | 897.4 | 891.6 | 885.9 | 880.2
4000 kPa | 909.3 | 903.5 | 897.9 | 892.1 | 886.5 | 880.8
5000 kPa | 909.8 | 904 | 898.3 | 892.7 | 887 | 881.3
10000 kPa | 912.1 | 906.3 | 900.7 | 895.1 | 889.5 | 884
15000 kPa | 914.3 | 908.5 | 903 | 897.5 | 892 | 886.6
20000 kPa | 916.2 | 910.7 | 905.3 | 899.9 | 894.4 | 889.1
25000 kPa | 918.3 | 912.8 | 907.5 | 902.1 | 896.7 | 891.4
30000 kPa | 920.3 | 914.9 | 909.6 | 904.3 | 899 | 893.9
35000 kPa | 922.2 | 916.9 | 911.6 | 906.5 | 901.4 | 896.2
40000 kPa | 924.2 | 918.9 | 913.7 | 908.5 | 903.4 | 898.3
45000 kPa | 926.1 | 920.9 | 915.7 | 910.7 | 905.6 | 900.5

CCCCCCCCCCCCCC[P+](CCCCCC)(CCCCCC)CCCCCC.CS(=O)(=O)[O-] [trihexyltetradecylphosphonium methanesulfonate]
mass density [kg/m3]
Conditions | 283.15 K | 293.15 K | 303.15 K | 313.15 K | 323.15 K | 333.15 K
100 kPa | 938 | 931.8 | 925.7 | 919.6 | 913.4 | 907.4
1000 kPa | 938.4 | 932.3 | 926.2 | 920.1 | 914 | 908.1
2000 kPa | 938.9 | 932.8 | 926.7 | 920.7 | 914.6 | 908.7
3000 kPa | 939.5 | 933.4 | 927.3 | 921.3 | 915.3 | 909.3
4000 kPa | 940.1 | 933.9 | 927.9 | 921.9 | 915.9 | 910
5000 kPa | 940.5 | 934.4 | 928.4 | 922.5 | 916.6 | 910.6
10000 kPa | 943.1 | 937.1 | 931.3 | 925.3 | 919.5 | 913.7
15000 kPa | 945.6 | 939.7 | 934 | 928.1 | 922.3 | 916.7
20000 kPa | 948 | 942.2 | 936.6 | 930.8 | 925.2 | 919.6
25000 kPa | 950.3 | 944.6 | 939 | 933.5 | 927.9 | 922.3
30000 kPa | 952.7 | 947.1 | 941.5 | 935.9 | 930.5 | 925
35000 kPa | 954.9 | 949.4 | 943.8 | 938.4 | 933.1 | 927.7
40000 kPa | 957.1 | 951.6 | 946.2 | 940.8 | 935.5 | 930.2
45000 kPa | 959.3 | 953.9 | 948.5 | 943.3 | 938.1 | 932.7
